≈ marks a conversion by molar mass, not a printed value. Where two headings read alike, the source gives them in different places. Marks after values point to notes of the source that are not given here.
What was measured:
[1] = target: T1, TcMetRS (Trypanosoma cruzi, UniProt Q4D6H2); assay: TcMetRS kinetic parameter determinations (Km app); type: biochemical
Method: (§1) The activity of the TcMetRS enzyme was determined by monitoring levels of pyrophosphate released during the first step of the enzymatic reaction. The pyrophosphate formed was converted to two inorganic phosphate molecules using a pyrophosphatase enzyme, and levels of the resulting phosphate molecules were measured using the BIOMOL Green reagent (Enzo Life Sciences).
(§2) TcMetRS assays were carried out using 384-well, clear, flat-bottomed plates (Greiner) at room temperature (∼23 °C) in 50 μL reaction volumes of assay buffer (30 mM Tris, pH 8.0, 140 mM NaCl, 30 mM KCl, 40 mM MgCl2, 0.01% (v/v) Brij-35, 1 mM DTT) plus 1 U/mL pyrophosphatase and varying concentrations of enzyme and substrates. Enzyme linearity was assessed in a 90 min end-point assay with varying TcMetRS concentrations (0–320 nM), 50 μM L-methionine, and 100 μM ATP. Reactions were stopped with the addition of 50 μL of BIOMOL Green reagent, with the signal allowed to develop for 30 min before the absorbance of each well was read at 650 nm (A650) using a PheraStar plate reader (BMG).
(§3) Apparent Michaelis constants (Km^app) for the L-methionine and ATP substrates were determined in end-point assays using the above buffer conditions and 80 nM recombinant TcMetRS. […] To determine the ATP Km^app, various ATP concentrations were tested in the presence of a fixed, saturating concentration of L-methionine (3 mM). […]

[2] = target: T2, LdMetRS (Leishmania donovani, UniProt A0A3Q8IBX2); conditions: read-out: LdMetRS Km app; cited from earlier work
[3] = target: T2, LdMetRS; assay: LdMetRS BIOMOL Green biochemical assay, 10-point dose response; conditions: for Emax: read-out: LdMetRS Maximum % Inhibition Plateau
[4] = target: T1, TcMetRS; assay: TcMetRS BIOMOL Green biochemical assay, 10-point dose response
[5] = CHI LogD measurement; type: physicochemical; conditions: chromatographic hydrophobicity index
Method: CHI LogD measurements were performed as described elsewhere.[29] cLogP measurements were calculated using StarDrop (Optibrium).

[6] = Aqueous solubility, filtration-based method; type: physicochemical; conditions: aqueous buffer, kinetic from dmso stock; phosphate-buffered saline pH 7.4, 24 h, 25 °C
Method: Solubility was assessed using a filtration-based method. Test compounds were dissolved in DMSO to give 10 mM solutions. Five microliters of the 10 mM solution was added to 195 μL of phosphate-buffered saline at pH 7.4 and mixed for 24 h (rotary mixing, 900 rpm, 25 °C) excluding light. After mixing, the samples were filtered to remove any undissolved material using a Millipore Multiscreen HTS filter. The filtrate was analyzed for dissolved drug compounds using UHPLC.

[7] = target: T2, LdMetRS; assay: LdMetRS mode of inhibition studies; type: biochemical; conditions: for Ki / h (inhibitor Hill slope) / β (fraction of activity remaining) / Vmax / n (substrate Hill slope) / Ks: LdMetRS; for Ki: fit to eq 7, ± SE of fit; for h (inhibitor Hill slope) / β (fraction of activity remaining) / Vmax / n (substrate Hill slope) / Ks / mode of inhibition, LdMetRS: eq 7; for Vmax: global fit parameter; for n (substrate Hill slope) / Ks: global fit; for Ks: substrate dissociation constant; for mode of inhibition, LdMetRS: best fit by F-test
From the text: Subsequent full mode of inhibition studies with compounds from the MetRS02 series were more challenging due to the partial inhibition profiles of some compounds resulting in poor global fits to the standard competitive, uncompetitive, and noncompetitive inhibition models (eqs 3, 4, and 5, respectively). In addition, during the enzymatic characterization of methionine binding to LdMetRS, a Hill slope of <1 was obtained (and was hypothesized to be due to conformational selection).[6] This low Hill slope is also not factored into the standard inhibition models described (eqs 3–5). New models with additional parameters to account for the partial inhibition and low methionine Hill slope were therefore required (eqs 6 and 7). Using these modified equations, the mode of inhibition of compound 27 was carried out by testing LdMetRS enzyme activity under varying substrate concentrations at various inhibitor concentrations (Figure 5). The cooperative, noncompetitive, partial inhibition model (eq 7) was confirmed as the best fit (using F-test analyses), with a noncompetitive mode of inhibition consistent with binding in an allosteric binding pocket. The returned fit parameters are shown in Table 4 and are presented with the standard error (SE) of the fit to eq 7.
(§4) Using GraFit v6.0 (Erithacus Software), each data set was globally fitted to standard competitive, uncompetitive, and noncompetitive inhibition models (eqs 3–5).
(§5) Equation 5 (noncompetitive inhibition model): [drawing 5] 5 On the basis of poor data fits to the above models, partial inhibition and cooperativity parameters were introduced into the uncompetitive and noncompetitive models as previously described by Skovpen et al.[30],[31] Mode of inhibition data were globally fitted to these modified equations (eqs 6 and 7).
(§6) Equation 7 (cooperative, noncompetitive, partial inhibition model): [drawing 7] 7 v is the velocity, Vmax is the maximum velocity, [S] is the substrate concentration, [I] is the inhibitor concentration, Ki is the inhibitor constant, Ks is the substrate dissociation constant, n is the substrate Hill slope, h is the inhibitor Hill slope, and β is the proportionality constant (fraction of activity remaining when the enzyme is fully saturated with inhibitor).
(§7) If more than one model appeared possible, then data were fitted to both and examined for significance using the F-test function in GraFit.

[8] = target: T1, TcMetRS; assay: TcMetRS mode of inhibition studies; type: biochemical; conditions: for Ki / h (inhibitor Hill slope) / β (fraction of activity remaining) / Vmax / n (substrate Hill slope) / Ks: TcMetRS; for Ki: fit to eq 7, ± SE of fit; for Vmax: global fit parameter; for n (substrate Hill slope) / Ks: global fit; for Ks: substrate dissociation constant
From the text: It was therefore feasible to perform TcMetRS mode inhibition studies with this compound. These studies, carried out as previously described for LdMetRS, confirm a best fit to the same partial, cooperative, noncompetitive inhibition model (eq 7; Supporting Information Figure 6 and Table 4).
as §4, §5, §6, §7

[9] = target: T2, LdMetRS; parameters: method as in PMID 28967262; conditions: cited from earlier work
[10] = system: leishmaniasis animal model; parameters: method as in PMID 28967262; conditions: cited from earlier work
[11] = substrate: CSCC[C@H](N)C(=O)O; assay: TcMetRS kinetic parameter determinations (Km app); type: biochemical, Trypanosoma cruzi; conditions: other: saturating 350 μM ATP; N = 3; pH 8.0; 23.0 °C
Method: as §1, §2, §3

[12] = LdMetRS pIC50, 50 μM methionine, 100 μM ATP, 50 nM LdMetRS, pIC50 = −log IC50 (M)

T2 sequence (A0A3Q8IBX2 entry or part of it): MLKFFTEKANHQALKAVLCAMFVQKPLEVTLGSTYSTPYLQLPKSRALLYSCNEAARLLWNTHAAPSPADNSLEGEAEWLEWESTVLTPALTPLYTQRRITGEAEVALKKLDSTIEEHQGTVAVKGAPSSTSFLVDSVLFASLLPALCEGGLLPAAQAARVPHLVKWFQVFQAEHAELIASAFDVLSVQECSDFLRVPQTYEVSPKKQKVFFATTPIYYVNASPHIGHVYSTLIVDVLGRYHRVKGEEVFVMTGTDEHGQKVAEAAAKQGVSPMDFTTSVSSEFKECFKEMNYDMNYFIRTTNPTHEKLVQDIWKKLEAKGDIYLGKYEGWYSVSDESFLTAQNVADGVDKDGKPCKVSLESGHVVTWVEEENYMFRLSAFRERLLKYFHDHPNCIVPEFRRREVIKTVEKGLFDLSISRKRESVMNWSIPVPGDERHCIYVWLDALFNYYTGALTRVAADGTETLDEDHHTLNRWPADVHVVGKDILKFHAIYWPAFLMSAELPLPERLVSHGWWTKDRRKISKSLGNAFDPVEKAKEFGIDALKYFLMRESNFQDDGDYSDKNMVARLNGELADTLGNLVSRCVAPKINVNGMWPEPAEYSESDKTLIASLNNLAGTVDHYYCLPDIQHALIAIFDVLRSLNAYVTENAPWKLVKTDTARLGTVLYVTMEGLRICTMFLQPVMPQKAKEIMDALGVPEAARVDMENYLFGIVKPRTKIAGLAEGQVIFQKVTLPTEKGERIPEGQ

Row | Molecule | Km [2] [µM] | IC50 [3, 12] [M] | Emax [3] [%] | IC50 [4] [µM] | chromatographic logD [5] | solubility at 24 h [6] [µM] | Ki ([7]; varied substrate ATP) [µM] | Ki ([7]; varied substrate methionine) [µM] | h (inhibitor Hill slope) ([7]; substrate ATP) | β (fraction of activity remaining) ([7]; substrate ATP) | Vmax ([7]; substrate ATP) [μM Piformed/min] | n (substrate Hill slope) ([7]; substrate ATP) | Ks ([7]; substrate ATP) [µM] | h (inhibitor Hill slope) ([7]; substrate methionine) | β (fraction of activity remaining) ([7]; substrate methionine) | Vmax ([7]; substrate methionine) [μM Piformed/min] | n (substrate Hill slope) ([7]; substrate methionine) | Ks ([7]; substrate methionine) [µM] | mode of inhibition, LdMetRS [7] | other results
1 | Nc1ncnc2c1ncn2[C@@H]1O[C@H](COP(=O)(O)OP(=O)(O)OP(=O)(O)O)[C@@H](O)[C@H]1O [ATP] | 37 |  |  |  |  |  |  |  |  |  |  |  |  |  |  |  |  |  |  | substrate inhibition constant ([1]; ATP, 3 mM methionine): 2080 µM; Km ([1]; saturating 3 mM methionine, N = 3, read-out: TcMetRS apparent Michaelis constant (Km app) for ATP): 63 µM
2 | CN(C)c1nc(Nc2ccc(F)c(F)c2)nc2c1cnn2C [Compound 19] |  | 1e-06 | 48.9 | > 100 | 2.88 | 4.8 (≈ 1.46 µg/mL) | 1.21 ± 0.06 | 1.22 ± 0.06 | 1.75 ± 0.12 | 0.55 ± 0.01 | 0.292 ± 0.004 | 1.03 ± 0.03 ^b | 21.0 ± 0.74 | 1.65 ± 0.11 | 0.57 ± 0.01 | 0.359 ± 0.009 | 0.53 ± 0.02 | 313 ± 35 | noncompetitive | Ki ([8]; varied substrate ATP): inactive; Ki ([8]; varied substrate methionine): inactive
3 | COC(=O)CNc1nc(Nc2ccc(F)c(F)c2)nc2c1cnn2C [Compound 27] |  | 1.26e-06 | 92.9 | > 100 | 2.17 | 5.5 (≈ 1.92 µg/mL) | 1.58 ± 0.04 | 2.06 ± 0.04 | 1.10 ± 0.02 | 0.027 ± 0.005 | 0.324 ± 0.004 | 1.07 ± 0.02 ^b | 21.1 ± 0.6 | 1.05 ± 0.02 | 0.060 ± 0.005 | 0.388 ± 0.009 | 0.50 ± 0.01 | 327 ± 35 | noncompetitive | IC50 ([3]; LdMetRS pIC50, 50 µM ATP and 50 µM methionine): 1.41e-06 M; IC50 ([3]; LdMetRS pIC50, both substrate concentrations increased to 500 µM): 1.41e-06 M; IC50 shift on increasing substrate concentrations ([3]; methionine and ATP increased from 50 μM each to 500 μM, preliminary data): no IC50 shifts; Emax ([4]; read-out: TcMetRS Maximum % Inhibition): 44.2 ± 6.5%; fold difference in Ki, TcMetRS versus LdMetRS ([8]; Ki from mode of inhibition studies, Table 4): 5–7 fold; Ki ([8]; Ki, varied substrate ATP): 11.3 ± 1.2 µM; Ki ([8]; Ki, varied substrate methionine): 10.8 ± 0.7 µM; h (inhibitor Hill slope) ([8]; substrate ATP, eq 7): 1.27 ± 0.14; β (fraction of activity remaining) ([8]; substrate ATP, eq 7): 0.48 ± 0.02; Vmax ([8]; substrate ATP, eq 7): 0.287 ± 0.006 μM Piformed/min; n (substrate Hill slope) ([8]; substrate ATP, eq 7): 1.07 ± 0.03 ^b; Ks ([8]; substrate ATP, eq 7): 40.5 ± 2.0 µM; h (inhibitor Hill slope) ([8]; substrate methionine, eq 7): 1.48 ± 0.11; β (fraction of activity remaining) ([8]; substrate methionine, eq 7): 0.65 ± 0.01; Vmax ([8]; substrate methionine, eq 7): 0.429 ± 0.016 μM Piformed/min; n (substrate Hill slope) ([8]; substrate methionine, eq 7): 0.42 ± 0.01; Ks ([8]; substrate methionine, eq 7): 1340 ± 237 µM; mode of inhibition, TcMetRS ([8]; best fit, eq 7): noncompetitive
4 | O=c1nc(NCCCNCc2cc3c(Cl)cc(Cl)cc3[nH]2)[nH]c2ccccc12 [DDD806905, reference compound] |  |  |  |  |  |  |  |  |  |  |  |  |  |  |  |  |  |  |  | IC50 ([4]; 50 μM methionine, 100 μM ATP, 80 nM TcMetRS, read-out: TcMetRS pIC50 (converted)): 0.0398 µM; IC50 ([4]; 50 μM methionine, 100 μM ATP, 80 nM TcMetRS, tight binding limit likely reached, read-out: TcMetRS IC50): 0.038 µM; LdMetRS pIC50 [9]: 7.0; in vivo efficacy [10]: failed to show in vivo efficacy
5 | CSCC[C@H](N)C(=O)O [methionine] | 173 |  |  |  |  |  |  |  |  |  |  |  |  |  |  |  |  |  |  | 
6 | TcMetRS (Trypanosoma cruzi strain CL Brener) (protein) MSLKLFSEKANTQALKALLCCHHVKRPVELTLSGAYTSPVLHHPALKQPIFSANEMVRLILHDKWRDDSAGGSGGKKTGCYDGHWASVSLEEEAWLEWEATTFTCAVHPLYTQRRVTPEAAGAFEYLDNKIHENDCRGPCLAPVGEKGTSTKSPSFLVDCIIWCAVLPALCEGGLLGEKEREKLPHLLKWFESFQSAREAHIAGAVESLAVQEFADFLRAPRVYKLSPKISKVFFITTPIYYVNAAPHIGHVYSTLIVDVIGRYHTMKGERVFAMSGTDEHGQKVAEAARQKGMNPYDFTCQVSREFIDCFEQMGYHMDYFIRTTNESHKKVVHELWSKLEAKGDIYLGRYEGWYSVSDESFLTAQNVTDGVDKDGKPCKVSLESGHVVTWLAEDNYMFRLSAFRERLLEWYNNNPGCIVPEFRRREVIRTVEKGLNDLSVSRTREAVQDWAIPVPGNPNHCIYVWLDALSNYYTASRLRLGKSGEELELVEDHRVLERFPADIHVIGKDILKFHAIYWPAFLISAGLPLPKTIVAHGWWTKDRKKISKSLGNVFDPVEKAREFGFDALKYFLLRETGFSDDGDYSDRNMISRLNGELADTLGNLVMRCTSAKINVHRVWPTPDAYNAKDEALIQLIKDLPGVVDHFFLIPDVQKALAAVFDLLRAINSYVTENAPWRLVKTDPDRLRTVLYITMEGTRLATLMLSPVLSQKAPVIFDMLGVPEANRVGVENFGFGVVPSGTSIGDAVEGKVLFPKISLDKAQSA |  |  |  |  |  |  |  |  |  |  |  |  |  |  |  |  |  |  |  | Km [11]: 212 µM

Source: paper PMC7294809, “Discovery of an Allosteric Binding Site in Kinetoplastid Methionyl-tRNA Synthetase” (ACS Infectious Diseases, 2020)
